For eleven compounds, TGI and GI50 results are on record in PubChem BioAssay (NCI).

Among the test systems are 786-0 renal; A549 NSCLC; CAKI-1 renal; EKVX NSCLC; HS 578T breast; IGROV1 ovarian; LOX IMVI melanoma; NCI-H23 lung; CCRF-CEM leukemia; K-562 leukemia; MOLT-4 leukemia; OVCAR-4 ovarian; SN12C renal; SW-620 colon.
Holding throughout (experiment): NCI anticancer screen, dose series, 48 h

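Five concentrations, 48 hours, 96-well plates. Abbreviation: GI50, concentration required for 50% inhibition of growth. Definition used: TGI = concentration required for complete inhibition of growth.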 A value given as a limit tells only on which side of the number the result lay.

`CC12C=CC(C)(C3C(=O)C4C(C(=O)C31)C1(C)C=CC4(C)S1=O)S2=O` (centres undefined): the TGI with 786-0 renal, with A549 NSCLC, in the experiment on CAKI-1 renal, with EKVX NSCLC, in the experiment with HS 578T breast and with IGROV1 ovarian was greater than 100 µM in each case. Also, the TGI in the experiment with LOX IMVI melanoma and in the experiment on NCI-H23 lung was greater than 100 µM throughout.

Take `CC1(C)OCN(c2ccc(N3CCOCC3)cc2)Cn2c1nc1ccccc12`: the TGI in the experiment on 786-0 renal, with A549 NSCLC, with CCRF-CEM leukemia, with EKVX NSCLC, in the experiment with IGROV1 ovarian and in the experiment on K-562 leukemia was greater than 100 µM throughout. For the same compound, the TGI with LOX IMVI melanoma, with MOLT-4 leukemia, in the experiment with NCI-H23 lung, in the experiment with OVCAR-4 ovarian, with SN12C renal and with SW-620 colon was greater than 100 µM each time.

On to `COc1cc(C=O)c(-c2c(C=O)ccc3c2OCO3)c(OC)c1OC`, for which the TGI with 786-0 renal, in the experiment on A549 NSCLC, with CAKI-1 renal, with CCRF-CEM leukemia, in the experiment on EKVX NSCLC and in the experiment with IGROV1 ovarian was greater than 100 µM in each case. Further, the TGI with K-562 leukemia, with LOX IMVI melanoma, in the experiment on MOLT-4 leukemia, with NCI-H23 lung, in the experiment on OVCAR-4 ovarian and in the experiment on SN12C renal was greater than 100 µM in each case. This compound also had a TGI in the experiment with SW-620 colon greater than 100 µM.

`O=[N+]([O-])c1ccc(CSc2nncc3[nH]cnc23)cc1`: the TGI in the experiment with 786-0 renal, with A549 NSCLC, in the experiment on CAKI-1 renal, in the experiment on CCRF-CEM leukemia, with EKVX NSCLC and in the experiment on IGROV1 ovarian was greater than 100 µM in each case. The TGI in the experiment with K-562 leukemia, in the experiment on LOX IMVI melanoma, in the experiment on MOLT-4 leukemia, with NCI-H23 lung, with OVCAR-4 ovarian and in the experiment on SN12C renal was greater than 100 µM throughout. In the experiment on SW-620 colon, this compound registered a TGI greater than 100 µM.

As to `CNC1(c2cc3ccccc3s2)CCCCC1`, the TGI in the experiment with 786-0 renal is 39.7 µM; in the experiment on A549 NSCLC, greater than 100 µM; in the experiment on CAKI-1 renal, greater than 100 µM; in the experiment with EKVX NSCLC, 93.8 µM; in the experiment with IGROV1 ovarian, 84.6 µM; in the experiment with K-562 leukemia it was greater than 100 µM. Moreover, the TGI in the experiment with LOX IMVI melanoma was 40.9 µM; with MOLT-4 leukemia, greater than 100 µM; with NCI-H23 lung it was greater than 100 µM; in the experiment on OVCAR-4 ovarian, greater than 100 µM; with SN12C renal, greater than 100 µM; in the experiment on SW-620 colon it was greater than 100 µM.

Regarding `CCOC(=O)Nc1cc2c(c(N)n1)N=C(c1ccc(OC)cc1)CN2`, the TGI in the experiment on 786-0 renal is 1.9 µM; in the experiment on A549 NSCLC it was 2.34 µM; in the experiment with EKVX NSCLC, greater than 100 µM; with HS 578T breast, 0.00932 µM; in the experiment with IGROV1 ovarian, 0.0741 µM; in the experiment on K-562 leukemia, 1.32 µM. The TGI was 3.15 µM in the experiment on LOX IMVI melanoma, 49.4 µM in the experiment with OVCAR-4 ovarian and 54.5 µM in the experiment with SN12C renal. In addition, the GI50 was 0.0204 µM in the experiment on A549 NSCLC, 0.0355 µM in the experiment with IGROV1 ovarian, 0.0144 µM in the experiment on LOX IMVI melanoma and 11.4 µM in the experiment with OVCAR-4 ovarian.

With `CCOC1C(Br)Cn2c(=O)c3cc4ccccc4cc3c(=O)n2C1C` (centres undefined), the TGI with 786-0 renal, in the experiment with A549 NSCLC, in the experiment on CAKI-1 renal, in the experiment on CCRF-CEM leukemia, in the experiment on EKVX NSCLC and with IGROV1 ovarian was greater than 100 µM throughout. Moreover, the TGI in the experiment with K-562 leukemia is greater than 100 µM; in the experiment with LOX IMVI melanoma, greater than 100 µM; with MOLT-4 leukemia, 94 µM; in the experiment on NCI-H23 lung it was greater than 100 µM; in the experiment with OVCAR-4 ovarian, greater than 100 µM; with SN12C renal, greater than 100 µM. Also, the TGI in the experiment with SW-620 colon was greater than 100 µM.

In the case of `CNc1ncccc1Nc1cc(=O)n2c3cccnc3n(C)c2c1`, the TGI with 786-0 renal, with A549 NSCLC, with CAKI-1 renal, in the experiment with CCRF-CEM leukemia, with EKVX NSCLC and in the experiment with IGROV1 ovarian was greater than 100 µM throughout. Also, the TGI in the experiment on K-562 leukemia, with LOX IMVI melanoma, in the experiment with MOLT-4 leukemia, in the experiment with NCI-H23 lung, in the experiment with OVCAR-4 ovarian and in the experiment on SW-620 colon was greater than 100 µM throughout.

Consider `CN(/N=C/c1ccc(C(=O)O)cc1)C1=NCCCCN1`, for which the TGI with 786-0 renal, with A549 NSCLC, in the experiment with CAKI-1 renal, in the experiment with CCRF-CEM leukemia, in the experiment on EKVX NSCLC and with IGROV1 ovarian was greater than 100 µM each time. Besides, the TGI in the experiment with K-562 leukemia, with LOX IMVI melanoma, with MOLT-4 leukemia, in the experiment on NCI-H23 lung, in the experiment with OVCAR-4 ovarian and in the experiment with SN12C renal was greater than 100 µM each time.

Take `Cc1c(N2C(=O)C(Cl)C2/C=C/c2ccccc2)c(=O)n(-c2ccccc2)n1C` (centres undefined): the TGI in the experiment with 786-0 renal is 67.1 µM; with A549 NSCLC it was 86.9 µM; in the experiment with CAKI-1 renal it was greater than 100 µM; in the experiment with CCRF-CEM leukemia, 48.1 µM; in the experiment with EKVX NSCLC, 34.4 µM; in the experiment with IGROV1 ovarian it was 42.8 µM. For the same compound, the TGI in the experiment with K-562 leukemia was 51.1 µM; with LOX IMVI melanoma, 34.5 µM; in the experiment on MOLT-4 leukemia it was 50 µM; with NCI-H23 lung it was 32.8 µM; in the experiment on OVCAR-4 ovarian, 84.6 µM; with SN12C renal, 47 µM. The TGI with SW-620 colon came out at 82.1 µM.

As to `COc1ccc(-c2c(C(C)=O)c(-c3ccccc3)n(C3OC(CO)C(O)C(O)C3O)c(=S)c2C#N)cc1` (centres undefined), the TGI with 786-0 renal, in the experiment on A549 NSCLC, in the experiment with CAKI-1 renal, with CCRF-CEM leukemia, in the experiment with EKVX NSCLC and in the experiment with IGROV1 ovarian was greater than 100 µM in each case. For the same compound, the TGI in the experiment with K-562 leukemia, with LOX IMVI melanoma, in the experiment on MOLT-4 leukemia, in the experiment with NCI-H23 lung, in the experiment with OVCAR-4 ovarian and with SN12C renal was greater than 100 µM each time. The TGI in the experiment with SW-620 colon was greater than 100 µM.
